{"source": "patent US20220387460A1", "about": "“LIPOSOME COMPOSITIONS AND METHODS OF TREATMENT TARGETED TO TUMOR ENDOTHELIUM” (Washington University, priority 2019, published 2022)", "key": {"[1]": {"conditions": "in vivo; cited from earlier work"}, "relapsed MM patients": {"system": "relapsed MM patients", "conditions": "combination treatment of AMD3100 and BTZ; cited from earlier work"}, "MM.1S-GFP-Luc cells": {"system": "MM.1S-GFP-Luc cells", "assay": "MM tumor progression (BLI) and survival in MM.1S-GFP-Luc-bearing mice", "assay_type": "in vivo", "conditions": "weekly intravenous, BTZ 1 mg/kg; for tumor progression / tumor growth (BLI): Y27632 2.5 mg/kg (FIGS. 6A-C, 8A-D); for survival of the mice: Y27632 2.5 mg/kg (FIGS. 6D-F, 9A-D)", "protocol": "Mice were randomized into 12 groups of 7 mice each, which received weekly intravenous injections of: (i) saline, (ii) Y27632 as a free drug (2.5 mg/kg), (iii) BTZ as a free drug (1 mg/kg), (iv) combination of free BTZ and free Y27632, (v) empty non-targeted liposomes, (vi) non-targeted liposomal Y27632 (2.5 mg/kg-equivalent), (vii) non-targeted liposomal BTZ (1 mg/kg), (viii) non-targeted liposomal combination of BTZ and Y27632 in the same liposome (2.5 mg/kg and 1 mg/kg, respectively), (ix) empty PSGL-1-targeted liposomes, (x) PSGL-1-targeted liposomal Y27632 (2.5 mg/kg), (xi) PSGL-1-targeted liposomal BTZ (1 mg/kg), (xii) PSGL-1-targeted liposomal combination of BTZ and Y27632 in the same liposome (2.5 mg/kg and 1 mg/kg, respectively). Tumor progression was assessed weekly by BLI, weight was recorded twice a week, and survival and general health of mice were recorded daily. The in vivo data were expressed as means±standard deviation."}, "MM.1S cells [2]": {"system": "MM.1S cells", "assay": "Viability of MM cells in co-culture with HUVECs (flow cytometry)", "assay_type": "cell-based", "conditions": "Homo sapiens; 24 hours, 0-50 nM, co-culture with HUVECs (FIG. 5B); read-out: IC50, killing of MM cells", "protocol": "(§1) DiD-labeled HUVECs and DiO-labeled MM.1S cells were co-cultured overnight and treated with free BTZ (0-50 nM) or liposomal BTZ (0-50 nM-equivalent) for 24 hours, and the survival of the MMs and HUVECs was analyzed via flow cytometry. MM cells were gated as DiO+ cells and HUVECs were gated as DiD+ cells, and each cell population was counted and normalized against counting beads (Invitrogen), and survival was calculated as a percentage of vehicle-treated controls. The in vitro data were expressed as means±standard deviation."}, "[3]": {"assay": "Drug entrapment (encapsulation) efficiency by ultracentrifugation and HPLC", "assay_type": "physicochemical", "conditions": "drug loaded in liposomes; BTZ in lipid bilayer, Y27632 in hydrophilic core", "protocol": "To evaluate loading efficiency, the liposomes were centrifuged at 38,000 rpm at 4° C. for 1 hour using a Beckman Optima™ XPN ultracentrifuge equipped with an SW 50.1 […] rotor (Beckman Coulter Inc., Fullerton, Calif., USA). The amount of BTZ and Y27632 in the supernatant was evaluated by HPLC as described in Example 9. The entrapment efficiency (EE) was calculated according to the following equation: EE=DT−DU/DT×100 where DT represents the total amount of drug added to the formulation during the preparation, and DU represents the amount of unincorporated drug found in the supernatant."}, "[4]": {"conditions": "cited from earlier work"}, "HUVECs [5]": {"system": "HUVECs", "assay": "Viability of HUVECs in co-culture with MM cells (flow cytometry)", "assay_type": "cell-based, human", "conditions": "24 hours, 0-50 nM, co-culture with MM.1S (FIG. 5C)", "protocol": "as §1"}, "MM1.S cells": {"system": "MM1.S cells", "assay": "Immunoblotting of adhesion signaling proteins (pSRC, pFAK) in MM cells co-cultured with HUVECs", "assay_type": "cell-based", "conditions": "25 μM, 6 hours (FIG. 4A)", "protocol": "(§2) HUVECs and MM1.S cells were co-cultured overnight and treated with vehicle (control), free Y27632 (25 μM), free BTZ (5 nM), empty liposomes, liposomal Y27632 (25 μM), liposomal BTZ (5 nM) for 6 hours. MM cells were then separated from the HUVECs and both cell types were collected. The proteins were then extracted and subjected to immunoblotting for pSRC, pFAK, p21, pRB, cPARP, cCasp3, cCasp9, pAKT, pS6R, pERK, and α-Tubulin.\n(§3) The immunoblotting protocol was performed as previously described below. Briefly, cells were lysed with 1× lysis buffer (Cell Signaling, #9803), the protein concentration was determined by Bradford assay (BioRad, Hercules, Calif.), and 50 μg of protein was loaded per lane. Electrophoresis was performed using NuPAGE 4%-12% Bis-Tris gels (Novex, Life Technologies, Grand Island, N.Y.) and transferred to a nitrocellulose membrane using iBlot (Invitrogen). Membranes were blocked with 5% non-fat milk in Tris-Buffered Saline/Tween20 (TBST) buffer and incubated with primary antibodies overnight at 4° C. The membranes were then washed with TBST for 30 minutes, incubated for 1 hour at room temperature with horseradish peroxidase (HRP)-conjugated secondary antibody, washed, and developed using Novex ECL Plus chemiluminescent Kit. Images were taken using a ChemiDoc XRS imaging system (Bio-Rad)."}, "MM.1S cells [6]": {"system": "MM.1S cells", "assay": "Trans-endothelial migration of MM cells in Boyden chamber with SDF-1", "assay_type": "cell-based", "conditions": "25 μM pre-treatment 3 hours, 30 nM SDF-1 (FIG. 4C)", "protocol": "Trans-endothelial migration was by incubating HUVECs (5×10^3 cells) overnight in the upper chamber of a Boyden chamber (Corning), followed by an adhesion assay. MM.1S cells were pre-treated with (or without) free Y27632 (25 μM) or liposomal Y27632 (25 μM equivalent) for 3 hours. The pre-treated MM.1 S cells were then placed in the upper migration chamber in the presence or absence of 30 nM SDF-1 in the lower chamber. After 3 hours of incubation, MM.1 S cells that migrated to the lower chambers were counted by flow cytometry. The in vitro data were expressed as means±standard deviation."}, "HUVECs [7]": {"system": "HUVECs", "assay": "Immunoblotting of adhesion signaling proteins (pSRC, pFAK) in HUVECs co-cultured with MM cells", "assay_type": "cell-based, human", "conditions": "25 μM, 6 hours (FIG. 4B)", "protocol": "as §2, §3"}}, "note": "Where two headings read alike, the source gives them in different places.", "data": [{"compound": "c1cc(CN2CCCNCCNCCCNCC2)ccc1CN1CCCNCCNCCCNCC1", "note": "[AMD3100]", "values": [{"measurement": "pharmacokinetic (PK) half-life", "setting": "[1]", "result": "3 to 5", "unit": "h"}, {"measurement": "overall response rate", "setting": "relapsed MM patients", "result": 510, "unit": "%"}]}, {"compound": "CC(C)C[C@H](NC(=O)[C@H](Cc1ccccc1)NC(=O)c1cnccn1)B(O)O", "note": "[BTZ, bortezomib]", "values": [{"measurement": "pharmacokinetic (PK) half-life", "setting": "[1]", "result": 40, "unit": "h"}, {"measurement": "tumor progression / tumor growth (BLI)", "setting": "MM.1S-GFP-Luc cells", "result": "delayed significantly the tumor growth"}, {"measurement": "survival of the mice", "setting": "MM.1S-GFP-Luc cells", "result": "significantly prolonged the survival"}, {"measurement": "IC50", "setting": "MM.1S cells [2]", "result": "~10", "unit": "nM"}, {"measurement": "maximal encapsulation efficiency (EE)", "setting": "[3]", "result": 77, "unit": "%"}, {"measurement": "maximum tolerated dose", "setting": "[4]; intravenous bolus on days 1, 4, 8, and 11 of a 3-week cycle (Vorhees 2003)", "result": "about 1.56 mg/m^2"}, {"measurement": "maximum tolerated dose", "setting": "[4]; intravenously once or twice weekly, patients with solid tumors (Orlowski 2003)", "result": 1.3, "unit": "mg/m^2"}, {"measurement": "survival of HUVECs", "setting": "HUVECs [5]", "result": "No effect"}]}, {"compound": "C[C@@H](N)[C@H]1CC[C@H](C(=O)Nc2ccncc2)CC1", "note": "[Y27632]", "values": [{"measurement": "tumor progression / tumor growth (BLI)", "setting": "MM.1S-GFP-Luc cells", "result": "did not affect the tumor growth"}, {"measurement": "survival of the mice", "setting": "MM.1S-GFP-Luc cells", "result": "did not extend the survival"}, {"measurement": "adhesion signaling proteins (pSRC and pFAK) in MM cells", "setting": "MM1.S cells", "result": "decreased adhesion signaling"}, {"measurement": "SDF-induced trans-endothelial migration of MM cells", "setting": "MM.1S cells [6]", "result": "reversed"}, {"measurement": "maximal encapsulation efficiency (EE)", "setting": "[3]", "result": 55, "unit": "%"}, {"measurement": "adhesion signaling proteins (pSRC and pFAK) in HUVECs", "setting": "HUVECs [7]", "result": "decreased adhesion signaling"}]}]}
